Here are results for one substance from US20110059969A1, “PIPERAZINES AS ANTI-OBESITY AGENTS” (ASTRAZENECA AB, priority 2007, published 2011).

Test [1] has as its system JEG-3 cells. Particulars: Biol. Reprod. (2007) 76: 203-10; cited from earlier work.
Test [2] deals with JEG-3 cells. In words: [3H]-thymidine incorporation by JEG-3 cells (JEG-3 protocol). The settings on record: FIG. 5. It counts as cell-based. Here is the method: In JEG-3 cells (choriocarcinoma cell line) leptin is able to stimulate proliferation up to 3 fold (Biol. Reprod. (2007) 76: 203-10). […] The radioactivity incorporated by the cells is an index of their proliferative activity and is measured in counts per minute (CPM) with a liquid scintillation beta counter.
This finding can be applied to test whether a compound is able to either reproduce the effect of leptin on cell proliferation (leptin receptor agonist mimetic) (i.e., a given compound will cause an increase in incorporated [^3H]-Thymidine by the cells) or to inhibit the effect of leptin (antagonistic effect) by preventing the leptin-mediated increase in [^3H]-thymidine incorporation.
This approach has the advantage of using a non-recombinant system and has reasonable reproducibility and robustness.
Background: Uptake of a labelled nucleoside into DNA is a usual measure of proliferation.

Turning to “Leptin: hormone synthesized in fat cells that is believed to act in the hypothalamus to reduce food intake and body weight”, in the test on JEG-3 cells [1], the stimulation of proliferation entry was “up to 3 fold”. In addition, the EC50 in the test on JEG-3 cells [2] (JEG-3 cells (choriocarcinoma cell line), read-out: EC50 of concentration-dependent increase in [3H]-thymidine incorporation) worked out at 2.1 nM. The “concentration giving maximal effect on [3H]-thymidine incorporation” value in the test with JEG-3 cells [2] (JEG-3 cells) stood at 100 nM.
